Assay results: patent publication US20210045385A1, “PYRIDAZINONE-SUBSTITUTED KETOXIMES AS HERBICIDES” (FMC Corporation, priority 2018, published 2021)

Columns and labels:
Assay type in all cases: in vivo
[1] = tested on: pigweed (Amaranthus retroflexus); experiment: Test A preemergence, visual plant response rating; settings: for Pigweed plant response rating: 125 g ai/ha, preemergence, 0 to 100 scale, 0 no effect, 100 complete control; for Pigweed plant response rating (0 to 100 scale): 500 g ai/ha Preemergence, approx. 10 days
In short: (§1)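 Formulated in a non-phytotoxic solvent mixture including surfactant, each test chemical was sprayed onto the soil surface after sowing, or onto seedlings 2 to 10 cm high. Roughly 10 days later, plants were compared with untreated controls and rated for injury from 0 (no effect) to 100 (complete control).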

[2] = tested on: ragweed (common ragweed, Ambrosia elatior); experiment: Test A preemergence, visual plant response rating; settings: for Ragweed plant response rating: 125 g ai/ha, preemergence, 0 to 100 scale, 0 no effect, 100 complete control; for Ragweed plant response rating (0 to 100 scale): 500 g ai/ha Preemergence, approx. 10 days
In short: as §1

[3] = tested on: barnyardgrass (Echinochloa crus-galli); experiment: Test A preemergence, visual plant response rating; settings: for Barnyardgrass plant response rating: 125 g ai/ha, preemergence, 0 to 100 scale, 0 no effect, 100 complete control; for Barnyardgrass plant response rating (0 to 100 scale): 500 g ai/ha Preemergence, approx. 10 days
In short: as §1

[4] = tested on: foxtail, giant (giant foxtail, Setaria faberii); experiment: Test A preemergence, visual plant response rating; settings: for Foxtail, Giant plant response rating: 125 g ai/ha, preemergence, 0 to 100 scale, 0 no effect, 100 complete control; for Foxtail, Giant plant response rating (0 to 100 scale): 500 g ai/ha Preemergence, approx. 10 days
In short: as §1

[5] = tested on: Italian ryegrass (Lolium multiflorum); experiment: Test A preemergence, visual plant response rating; settings: for Ryegrass, Italian plant response rating: 125 g ai/ha, preemergence, 0 to 100 scale, 0 no effect, 100 complete control; for Ryegrass, Italian plant response rating (0 to 100 scale): 500 g ai/ha Preemergence, approx. 10 days
In short: as §1

[6] = tested on: kochia (Kochia scoparia); experiment: Test A preemergence, visual plant response rating; settings: for Kochia plant response rating: 125 g ai/ha, preemergence, 0 to 100 scale, 0 no effect, 100 complete control; for Kochia plant response rating (0 to 100 scale): 500 g ai/ha Preemergence, approx. 10 days
In short: as §1

[7] = tested on: corn (Zea mays); experiment: Test A postemergence, visual plant response rating; settings: for Corn plant response rating (0 to 100 scale): 500 g ai/ha, postemergence, 0 is no effect, 100 is complete control; for Corn plant response rating: Postemergence, 125 g ai/ha, 0 to 100 scale (0 no effect, 100 complete control)
In short: as §1

[8] = tested on: pigweed (Amaranthus retroflexus); experiment: Test A postemergence, visual plant response rating; settings: for Pigweed plant response rating (0 to 100 scale): 500 g ai/ha, postemergence, 0 is no effect, 100 is complete control; for Pigweed plant response rating: Postemergence, 125 g ai/ha, 0 to 100 scale (0 no effect, 100 complete control)
In short: as §1

[9] = tested on: blackgrass (Alopecurus myosuroides); experiment: Test A postemergence, visual plant response rating; settings: for Blackgrass plant response rating (0 to 100 scale): 500 g ai/ha, postemergence, 0 is no effect, 100 is complete control; for Blackgrass plant response rating: Postemergence, 125 g ai/ha, 0 to 100 scale (0 no effect, 100 complete control)
In short: as §1

[10] = tested on: ragweed (common ragweed, Ambrosia elatior); experiment: Test A postemergence, visual plant response rating; settings: for Ragweed plant response rating (0 to 100 scale): 500 g ai/ha, postemergence, 0 is no effect, 100 is complete control; for Ragweed plant response rating: Postemergence, 125 g ai/ha, 0 to 100 scale (0 no effect, 100 complete control)
In short: as §1

[11] = tested on: barnyardgrass (Echinochloa crus-galli); experiment: Test A postemergence, visual plant response rating; settings: for Barnyardgrass plant response rating (0 to 100 scale): 500 g ai/ha, postemergence, 0 is no effect, 100 is complete control; for Barnyardgrass plant response rating: Postemergence, 125 g ai/ha, 0 to 100 scale (0 no effect, 100 complete control)
In short: as §1

[12] = tested on: foxtail, giant (giant foxtail, Setaria faberii); experiment: Test A postemergence, visual plant response rating; settings: for Foxtail, Giant plant response rating (0 to 100 scale): 500 g ai/ha, postemergence, 0 is no effect, 100 is complete control; for Foxtail, Giant plant response rating: Postemergence, 125 g ai/ha, 0 to 100 scale (0 no effect, 100 complete control)
In short: as §1

[13] = tested on: Italian ryegrass (Lolium multiflorum); experiment: Test A postemergence, visual plant response rating; settings: for Ryegrass, Italian plant response rating (0 to 100 scale): 500 g ai/ha, postemergence, 0 is no effect, 100 is complete control; for Ryegrass, Italian plant response rating: Postemergence, 125 g ai/ha, 0 to 100 scale (0 no effect, 100 complete control)
In short: as §1

[14] = tested on: galium (catchweed bedstraw, Galium aparine); experiment: Test A postemergence, visual plant response rating; settings: for Galium plant response rating (0 to 100 scale): 500 g ai/ha, postemergence, 0 is no effect, 100 is complete control; for Galium plant response rating: Postemergence, 125 g ai/ha, 0 to 100 scale (0 no effect, 100 complete control)
In short: as §1

[15] = tested on: wheat (Triticum aestivum); experiment: Test A postemergence, visual plant response rating; settings: for Wheat plant response rating (0 to 100 scale): 500 g ai/ha, postemergence, 0 is no effect, 100 is complete control; for Wheat plant response rating: Postemergence, 125 g ai/ha, 0 to 100 scale (0 no effect, 100 complete control)
In short: as §1

[16] = tested on: kochia (Kochia scoparia); experiment: Test A postemergence, visual plant response rating; settings: for Kochia plant response rating (0 to 100 scale): 500 g ai/ha, postemergence, 0 is no effect, 100 is complete control; for Kochia plant response rating: Postemergence, 125 g ai/ha, 0 to 100 scale (0 no effect, 100 complete control)
In short: as §1

[17] = tested on: rice (Oryza sativa); experiment: Test B flooded paddy test, visual plant response rating; settings: 250 g ai/ha, Flood, applied to paddy water, 2-leaf stage, evaluated after 13 to 15 days
In short: (§2)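 Compounds added straight into paddy water of pots flooded to 3 cm, with 2-leaf-stage plants of the four species; water level held throughout.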

[18] = tested on: barnyardgrass (Echinochloa crus-galli); experiment: as above; settings: 250 g ai/ha, Flood, applied to paddy water, 2-leaf stage, evaluated after 13 to 15 days
In short: as §2

[19] = tested on: ducksalad (Heteranhera limosa); experiment: as above; settings: 250 g ai/ha, Flood, applied to paddy water, 2-leaf stage, evaluated after 13 to 15 days
In short: as §2

[20] = tested on: sedge, umbrella (small-flower umbrella sedge, Cyperus difformis); experiment: as above; settings: 250 g ai/ha, Flood, applied to paddy water, 2-leaf stage, evaluated after 13 to 15 days
In short: as §2

Structure (SMILES) | Pigweed plant response rating [1] | Pigweed plant response rating (0 to 100 scale) [1] | Ragweed plant response rating [2] | Ragweed plant response rating (0 to 100 scale) [2] | Barnyardgrass plant response rating [3] | Barnyardgrass plant response rating (0 to 100 scale) [3] | Foxtail, Giant plant response rating [4] | Foxtail, Giant plant response rating (0 to 100 scale) [4] | Ryegrass, Italian plant response rating [5] | Ryegrass, Italian plant response rating (0 to 100 scale) [5] | Kochia plant response rating [6] | Kochia plant response rating (0 to 100 scale) [6] | Corn plant response rating (0 to 100 scale) [7] | Corn plant response rating [7] | Pigweed plant response rating (0 to 100 scale) [8] | Pigweed plant response rating [8] | Blackgrass plant response rating (0 to 100 scale) [9] | Blackgrass plant response rating [9] | Ragweed plant response rating (0 to 100 scale) [10] | Ragweed plant response rating [10] | also measured
CCCO/N=C(\c1c(O)c(C)nn(C)c1=O)c1cccc2ccccc12 [Compound 80] | 20 | 100 | 50 | 100 | 60 | 80 | 60 | 100 | 10 | 30 | 0 | 10 | 20 | 10 | 80 | 70 | 90 | 70 | 90 | 80 | Barnyardgrass plant response rating (0 to 100 scale) [11]: 60; Barnyardgrass plant response rating [11]: 50; Foxtail, Giant plant response rating (0 to 100 scale) [12]: 80; Foxtail, Giant plant response rating [12]: 60; Ryegrass, Italian plant response rating (0 to 100 scale) [13]: 70; Ryegrass, Italian plant response rating [13]: 20; Galium plant response rating (0 to 100 scale) [14]: 90; Galium plant response rating [14]: 80; Wheat plant response rating (0 to 100 scale) [15]: 0; Wheat plant response rating [15]: 0; Kochia plant response rating (0 to 100 scale) [16]: 60; Kochia plant response rating [16]: 30; Plant response rating, Rice (0 to 100 scale, 0 is no effect, 100 is complete control) [17]: 0; Plant response rating, Barnyardgrass (0 to 100 scale, 0 is no effect, 100 is complete control) [18]: 0; Plant response rating, Ducksalad (0 to 100 scale, 0 is no effect, 100 is complete control) [19]: 0; Plant response rating, Sedge, Umbrella (0 to 100 scale, 0 is no effect, 100 is complete control) [20]: 0
CCCO/N=C(/c1c(O)c(C)nn(C)c1=O)c1cccc2ccccc12 [Compound 81] | 20 | 100 | 90 | 100 | 60 | 70 | 60 | 100 | 20 | 50 | 10 | 10 | 20 | 20 | 90 | 60 | 80 | 70 | 90 | 80 | Barnyardgrass plant response rating (0 to 100 scale) [11]: 70; Barnyardgrass plant response rating [11]: 40; Foxtail, Giant plant response rating (0 to 100 scale) [12]: 80; Foxtail, Giant plant response rating [12]: 60; Ryegrass, Italian plant response rating (0 to 100 scale) [13]: 20; Ryegrass, Italian plant response rating [13]: 30; Galium plant response rating (0 to 100 scale) [14]: 90; Galium plant response rating [14]: 80; Wheat plant response rating (0 to 100 scale) [15]: 0; Wheat plant response rating [15]: 0; Kochia plant response rating (0 to 100 scale) [16]: 60; Kochia plant response rating [16]: 40; Plant response rating, Rice (0 to 100 scale, 0 is no effect, 100 is complete control) [17]: 0; Plant response rating, Barnyardgrass (0 to 100 scale, 0 is no effect, 100 is complete control) [18]: 0; Plant response rating, Ducksalad (0 to 100 scale, 0 is no effect, 100 is complete control) [19]: 0; Plant response rating, Sedge, Umbrella (0 to 100 scale, 0 is no effect, 100 is complete control) [20]: 0
